Reference: US11969423B2, “Compounds” (GLAXOSMITHKLINE INTELLECTUAL PROPERTY DEVELOPMENT LIMITED, priority 2017, dated 2024)

Each compound was assayed on M. tuberculosis W4-E1-GFP (Mutant). Conditions: read-out: EC50_Mutant.
Assay type: cell-based, Mycobacterium tuberculosis
Work on `O=C(CCC(F)(F)F)N1CCC(c2cnccn2)CC1` [Example 1, 4,4,4-trifluoro-1-(4-pyrazin-2-yl-1-piperidyl)butan-1-one] yielded an EC50 of 1000 to 10000 nM. For `O=C(CCC(F)(F)F)N1CCC(F)(c2cccnc2)CC1` [Example 2, 4,4,4-trifluoro-1-[4-fluoro-4-(3-pyridyl)-1-piperidyl]butan-1-one], the EC50 was 500 to 1000 nM. For `O=C(CCC(F)(F)F)N1CCC(c2cncc(F)c2)CC1` [Example 3, 4,4,4-trifluoro-1-[4-(5-fluoro-3-pyridyl)-1-piperidyl]butan-1-one], the EC50 was 1000 to 10000 nM. `O=C(CCC(F)(F)F)N1CCC(c2ccc(F)nc2)CC1` [Example 4, 4,4,4-trifluoro-1-[4-(6-fluoro-3-pyridyl)-1-piperidyl]butan-1-one] showed an EC50 of 1000 to 10000 nM. Work on `O=C(CCC(F)(F)F)N1CCC(c2ccc(C(F)(F)F)nc2)CC1` [Example 5, 4,4,4-trifluoro-1-[4-[6-(trifluoromethyl)-3-pyridyl]-1-piperidyl]butan-1-one] yielded an EC50 of 1000 to 10000 nM. For `O=C(CCC(F)(F)F)N1CCC(c2cc(C(F)(F)F)ccn2)CC1` [Example 6, 4,4,4-trifluoro-1-[4-[4-(trifluoromethyl)-2-pyridyl]-1-piperidyl]butan-1-one], the EC50 was 50 to 250 nM. In the case of `O=C(CCC(F)(F)F)N1CCC(c2cncc(C(F)(F)F)c2)CC1` [Example 7, 4,4,4-trifluoro-1-[4-[5-(trifluoromethyl)-3-pyridyl]-1-piperidyl]butan-1-one], the EC50 is reported as 50 to 250 nM. In the case of `O=C(CCC(F)(F)F)N1CCC(c2cccc(C(F)(F)F)n2)CC1` [Example 8, 4,4,4-trifluoro-1-[4-[6-(trifluoromethyl)-2-pyridyl]-1-piperidyl]butan-1-one], the EC50 is reported as 1000 to 10000 nM. In the case of `O=C(CCC(F)(F)F)N1CCC(c2cccc(F)n2)CC1` [Example 9, 4,4,4-trifluoro-1-[4-(6-fluoro-2-pyridyl)-1-piperidyl]butan-1-one], the EC50 is reported as 250 to 500 nM. Work on `COc1ccc(C2CCN(C(=O)CCC(F)(F)F)CC2)cn1` [Example 10, 4,4,4-trifluoro-1-[4-(6-methoxy-3-pyridyl)-1-piperidyl]butan-1-one] yielded an EC50 of 50 to 250 nM. `O=C(CCC(F)(F)F)N1CCC(c2cccnc2C(F)(F)F)CC1` [Example 11, 4,4,4-trifluoro-1-[4-[2-(trifluoromethyl)-3-pyridyl]-1-piperidyl]butan-1-one] gave an EC50 of 1000 to 10000 nM. With `COc1cncc(C2CCN(C(=O)CCC(F)(F)F)CC2)c1` [Example 12, 4,4,4-trifluoro-1-[4-(5-methoxy-3-pyridyl)-1-piperidyl]butan-1-one] the EC50 was 500 to 1000 nM. For `O=C(CCC(F)(F)F)N1CCC(c2ccc(F)nc2F)CC1` [Example 14, 1-[4-(2,6-difluoro-3-pyridyl)-1-piperidyl]-4,4,4-trifluoro-butan-1-one], the EC50 was 50 to 250 nM. `O=C(CCC(F)(F)F)N1CCC(c2nccc(C(F)(F)F)n2)CC1` [Example 15] gave an EC50 of 1000 to 10000 nM. In the case of `O=C(CCC(F)(F)F)N1CCC(c2cncnc2)CC1` [Example 16], the EC50 is reported as 1000 to 10000 nM. Work on `O=C(CCC(F)(F)F)N1CCC(c2ccc(F)cn2)CC1` [Example 17, 4,4,4-trifluoro-1-[4-(5-fluoro-2-pyridyl)-1-piperidyl]butan-1-one] yielded an EC50 of 1000 to 10000 nM. `O=C(CCC(F)(F)F)N1CCC(c2ccnc(C(F)(F)F)c2)CC1` [Example 18, 4,4,4-trifluoro-1-(4-(2-(trifluoromethyl)pyridin-4-yl)piperidin-1-yl)butan-1-one] was tested, and the EC50 was < 50 nM. Compound `O=C(CCC(F)(F)F)N1CCC(c2ccnc(F)c2)CC1` [Example 20, 4,4,4-trifluoro-1-(4-(2-fluoropyridin-4-yl)piperidin-1-yl)butan-1-one] has an EC50 of 50 to 250 nM. Compound `O=C(CCC(F)(F)F)N1CCC(c2cnc(C(F)(F)F)cn2)CC1` [Example 21, 4,4,4-trifluoro-1-(4-(5-(trifluoromethyl)pyrazin-2-yl)piperidin-1-yl)butan-1-one] has an EC50 of 1000 to 10000 nM. Compound `Cc1cc(C2CCN(C(=O)CCC(F)(F)F)CC2)ccn1` [Example 22, 4,4,4-trifluoro-1-(4-(2-methylpyridin-4-yl)piperidin-1-yl)butan-1-one] has an EC50 of 50 to 250 nM. With `O=C(CCC(F)(F)F)N1CCC(c2cnc(F)c(F)c2)CC1` [Example 23, 1-(4-(5,6-difluoropyridin-3-yl)piperidin-1-yl)-4,4,4-trifluorobutan-1-one] the EC50 was 50 to 250 nM. In the case of `O=C(CCC(F)(F)F)N1CCC(c2cncc(C(F)(F)F)n2)CC1` [Example 24, 4,4,4-trifluoro-1-(4-(6-(trifluoromethyl)pyrazin-2-yl)piperidin-1-yl)butan-1-one], the EC50 is reported as 500 to 1000 nM. In the case of `O=C(CCC(F)(F)F)N1CCC(c2ccnc(Cl)c2)CC1` [Example 25, 1-(4-(2-chloropyridin-4-yl)piperidin-1-yl)-4,4,4-trifluorobutan-1-one], the EC50 is reported as 50 to 250 nM. `O=C(CCC(F)(F)F)N1CCC(c2ccncc2F)CC1` [Example 26, 4,4,4-trifluoro-1-(4-(3-fluoropyridin-4-yl)piperidin-1-yl)butan-1-one] was tested, and the EC50 was 500 to 1000 nM. With `O=C(CCC(F)(F)F)N1CCC(c2cccc(Cl)n2)CC1` [Example 27, 1-(4-(6-chloropyridin-2-yl)piperidin-1-yl)-4,4,4-trifluorobutan-1-one] the EC50 was 50 to 250 nM. `O=C(CCC(F)(F)F)N1CCC(c2ncccn2)CC1` [Example 28, 4,4,4-trifluoro-1-[4-(pyrimidin-2-yl)piperidin-1-yl]butan-1-one] showed an EC50 of 1000 to 10000 nM. With `O=C(CCC(F)(F)F)N1CCC(F)(c2cncc(Cl)c2)CC1` [Example 29, 1-(4-(5-chloropyridin-3-yl)-4-fluoropiperidin-1-yl)-4,4,4-trifluorobutan-1-one] the EC50 was < 50 nM. `O=C(CCC(F)(F)F)N1CCC(c2cncc(Cl)c2)CC1` [Example 30, 1-(4-(5-chloropyridin-3-yl)piperidin-1-yl)-4,4,4-trifluorobutan-1-one] gave an EC50 of 50 to 250 nM. In the case of `O=C(CCCC(F)(F)F)N1CCC(c2cncc(Cl)c2)CC1` [Example 31, 1-(4-(5-chloropyridin-3-yl)piperidin-1-yl)-5,5,5-trifluoropentan-1-one], the EC50 is reported as 250 to 500 nM. Work on `O=C(CCC(F)(F)F)N1CCC(c2cncc(Cl)n2)CC1` [Example 32, 1-(4-(6-chloropyrazin-2-yl)piperidin-1-yl)-4,4,4-trifluorobutan-1-one] yielded an EC50 of 50 to 250 nM. Compound `O=C(CCC(F)(F)F)N1CCC(F)(c2ccccn2)CC1` [Example 33, 4,4,4-trifluoro-1-(4-fluoro-4-(pyridin-2-yl)piperidin-1-yl)butan-1-one] has an EC50 of 50 to 250 nM. In the case of `O=C(CCC(F)(F)F)N1CCC(F)(c2cncc(C(F)(F)F)c2)CC1` [Example 34, 4,4,4-trifluoro-1-(4-fluoro-4-(5-(trifluoromethyl)pyridin-3-yl)piperidin-1-yl)butan-1-one], the EC50 is reported as < 50 nM. For `O=C(CCC(F)(F)F)N1CCC(F)(c2ccnc(C(F)(F)F)c2)CC1` [Example 35, 4,4,4-trifluoro-1-(4-fluoro-4-(2-(trifluoromethyl)pyridin-4-yl)piperidin-1-yl)butan-1-one], the EC50 was < 50 nM. `O=C(CCC(F)(F)F)N1CCC(F)(c2cncc(Cl)n2)CC1` [Example 36, 1-(4-(6-chloropyrazin-2-yl)-4-fluoropiperidin-1-yl)-4,4,4-trifluorobutan-1-one] gave an EC50 of 250 to 500 nM. For `O=C(CCC(F)(F)F)N1CCC(F)(c2ccnc(F)c2)CC1` [Example 37, 4,4,4-trifluoro-1-(4-fluoro-4-(2-fluoropyridin-4-yl)piperidin-1-yl)butan-1-one], the EC50 was < 50 nM. In the case of `O=C(CCC(F)(F)F)N1CCC(c2cncc(Cl)c2)C1` (stereo not drawn) [Example 38, 1-(3-(5-chloropyridin-3-yl)pyrrolidin-1-yl)-4,4,4-trifluorobutan-1-one], the EC50 is reported as < 50 nM. `O=C(CCC(F)(F)F)N1CCC(F)(c2cc(C(F)(F)F)ccn2)CC1` [Example 39, 4,4,4-trifluoro-1-[4-fluoro-4-[4-(trifluoromethyl)-2-pyridyl]-1-piperidyl]butan-1-one] gave an EC50 of 50 to 250 nM. `O=C(CCC(F)(F)F)N1CCC(F)(c2ccc(F)nc2)CC1` [Example 40] gave an EC50 of 50 to 250 nM. In the case of `O=C(CCC(F)(F)F)N1CCC(F)(c2ccnc(Cl)c2)CC1` [Example 41], the EC50 is reported as < 50 nM.
